According to patent US10570129B2 (Zoetis Services LLC, priority 2015, dated 2020):

What was measured:
D. immitis microfilariae = assay: Dirofilaria immitis, microfilariae (DiMF) in vitro motility assay; assay type: cell-based; details: Dirofilaria immitis, 72 h, read-out: DiMF minimally effective dose (MEC)
Haemonchus contortus L3 = assay: microbe, parasite or virus in culture; assay type: cell-based; details: Haemonchus contortus, 96 h, read-out: HcL3 Minimal Effective Concentration (MEC)

Compound	minimal effective concentration (D. immitis microfilariae) [µM]	minimal effective concentration (Haemonchus contortus L3) [µM]
O=C(NCc1ccnc(Cl)c1)n1c2c(c3cc(F)c(Cl)cc31)CN(C/C=C/c1cc(F)c(F)c(F)c1)CC2 [Example 301, (E)-7-chloro-N-((2-chloropyridin-4-yl)methyl)-8-fluoro-2-(3-(3,4,5-trifluorophenyl)allyl)-1,2,3,4-tetrahydro-5H-pyrido[4,3-b]indole-5-carboxamide]	18.2	0.2
O=C(NCc1ccnc(Cl)c1)n1c2c(c3cc(F)c(Cl)cc31)CN(C/C=C/c1cc(F)cc(F)c1)CC2 [Example 302, (E)-7-chloro-N-((2-chloropyridin-4-yl)methyl)-2-(3-(3,5-difluorophenyl)-allyl)-8-fluoro-1,2,3,4-tetrahydro-5H-pyrido[4,3-b]indole-5-carboxamide]	5.7	0.3
N#Cc1ccc(/C=C/CN2CCc3c(c4c(Cl)c(F)ccc4n3C(=O)NCc3ccnc(Cl)c3)C2)cc1 [Example 303, (E)-9-chloro-N-((2-chloropyridin-4-yl)methyl)-2-(3-(4-cyanophenyl)allyl)-8-fluoro-1,2,3,4-tetrahydro-5H-pyrido[4,3-b]indole-5-carboxamide]	57.4	1
O=C(NCc1ccnc(Cl)c1)n1c2c(c3cc(F)c(Cl)cc31)CN(C/C=C/c1ccc(Cl)cc1)CC2 [Example 304, (E)-7-chloro-2-(3-(4-chlorophenyl)allyl)-N-((2-chloropyridin-4-yl)methyl)-8-fluoro-1,2,3,4-tetrahydro-5H-pyrido[4,3-b]indole-5-carboxamide]	18.2	0.3
O=C(NCc1ccnc(Cl)c1)n1c2c(c3c(Cl)c(F)ccc31)CN(C/C=C/c1ccc(Cl)cc1)CC2 [Example 305, (E)-9-chloro-2-(3-(4-chlorophenyl)allyl)-N-((2-chloropyridin-4-yl)methyl)-8-fluoro-1,2,3,4-tetrahydro-5H-pyrido[4,3-b]indole-5-carboxamide]	16.5	0.9
O=C(NCc1ccnc(Cl)c1)n1c2c(c3c(Cl)c(F)ccc31)CN(C/C=C/c1ccc(C(F)(F)F)cc1)CC2 [Example 308, (E)-9-chloro-N-((2-chloropyridin-4-yl)methyl)-8-fluoro-2-(3-(4-(trifluoro-methyl)phenyl)allyl)-1,2,3,4-tetrahydro-5H-pyrido[4,3-b]indole-5-carboxamide]	32.1	10.3
O=C(NCc1ccnc(F)c1)n1c2c(c3cc(F)c(Cl)cc31)CN(C/C=C/c1ccc(Cl)c(F)c1)CC2 [Example 309, (E)-7-chloro-2-(3-(4-chloro-3-fluorophenyl)allyl)-8-fluoro-N-((2-fluoropyridin-4-yl)methyl)-1,2,3,4-tetrahydro-5H-pyrido[4,3-b]indole-5-carboxamide]	1.8	0.3
O=C(NCc1ccnc(F)c1)n1c2c(c3cc(F)c(Cl)cc31)CN(C/C=C/c1ccc(Cl)cc1F)CC2 [Example 310, (E)-7-chloro-2-(3-(4-chloro-2-fluorophenyl)allyl)-8-fluoro-N-((2-fluoropyridin-4-yl)methyl)-1,2,3,4-tetrahydro-5H-pyrido[4,3-b]indole-5-carboxamide]	24.5	1.3
N#Cc1ccc(/C=C/CN2CCc3c(c4cc(F)c(Cl)cc4n3C(=O)NCc3ccnc(F)c3)C2)cc1F [Example 311, (E)-7-chloro-2-(3-(4-cyano-3-fluorophenyl)allyl)-8-fluoro-N-((2-fluoro-pyridin-4-yl)methyl)-1,2,3,4-tetrahydro-5H-pyrido[4,3-b]indole-5-carboxamide]	5.7	0.5
O=C(NCc1ccnc(F)c1)n1c2c(c3cc(F)c(Cl)cc31)CN(C/C=C/c1ccc(F)cc1F)CC2 [Example 312, (E)-7-chloro-2-(3-(2,4-difluorophenyl)allyl)-8-fluoro-N-((2-fluoropyridin-4-yl)methyl)-1,2,3,4-tetrahydro-5H-pyrido[4,3-b]indole-5-carboxamide]	1	0.1
O=C(NCc1ccnc(F)c1)n1c2c(c3cc(F)c(Cl)cc31)CN(C/C=C/c1ccc(F)c(Cl)c1)CC2 [Example 313, (E)-7-chloro-2-(3-(3-chloro-4-fluorophenyl)allyl)-8-fluoro-N-((2-fluoro-pyridin-4-yl)methyl)-1,2,3,4-tetrahydro-5H-pyrido[4,3-b]indole-5-carboxamide]	3.3	0.5
O=C(NCc1ccnc(F)c1)n1c2c(c3cc(F)c(Cl)cc31)CN(C/C=C/c1cc(F)c(F)c(F)c1)CC2 [Example 315, (E)-7-chloro-8-fluoro-N-((2-fluoropyridin-4-yl)methyl)-2-(3-(3,4,5-trifluorophenyl)allyl)-1,2,3,4-tetrahydro-5H-pyrido[4,3-b]indole-5-carboxamide]	5.7	1
O=C(NCc1ccnc(F)c1)n1c2c(c3cc(F)c(Cl)cc31)CN(C/C=C/c1cc(F)cc(F)c1)CC2 [Example 316, (E)-7-chloro-2-(3-(3,5-difluorophenyl)allyl)-8-fluoro-N-((2-fluoropyridin-4-yl)methyl)-1,2,3,4-tetrahydro-5H-pyrido[4,3-b]indole-5-carboxamide]	5.7	> 100
O=C(NCc1ccnc(F)c1)n1c2c(c3cc(F)c(Cl)cc31)CN(C/C=C/c1ccc(F)cc1)CC2 [Example 319, (E)-7-chloro-8-fluoro-2-(3-(4-fluorophenyl)allyl)-N-((2-fluoropyridin-4-yl)methyl)-1,2,3,4-tetrahydro-5H-pyrido[4,3-b]indole-5-carboxamide]	10	10
N#Cc1ccc(/C=C/CN2CCc3c(c4c(C(F)(F)F)cc(F)cc4n3C(=O)NCc3ccnc(Cl)c3)C2)cc1 [Example 320, (E)-N-((2-chloropyridin-4-yl)methyl)-2-(3-(4-cyanophenyl)allyl)-7-fluoro-9-(trifluoromethyl)-1,2,3,4-tetrahydro-5H-pyrido[4,3-b]indole-5-carboxamide]	18.2	3.3
O=C(NCc1ccnc(Cl)c1)n1c2c(c3c(C(F)(F)F)cc(F)cc31)CN(C/C=C/c1ccc(Cl)cc1)CC2 [Example 322, (E)-2-(3-(4-chlorophenyl)allyl)-N-((2-chloropyridin-4-yl)methyl)-7-fluoro-9-(trifluoromethyl)-1,2,3,4-tetrahydro-5H-pyrido[4,3-b]indole-5-carboxamide]	10	5.7
O=C(NCc1ccnc(Cl)c1)n1c2c(c3c(F)cc(C(F)(F)F)cc31)CN(C/C=C/c1ccc(Cl)cc1)CC2 [Example 323, (E)-2-(3-(4-chlorophenyl)allyl)-N-((2-chloropyridin-4-yl)methyl)-9-fluoro-7-(trifluoromethyl)-1,2,3,4-tetrahydro-5H-pyrido[4,3-b]indole-5-carboxamide]	7.6	> 100
O=C(NCc1ccnc(Cl)c1)n1c2c(c3c(C(F)(F)F)cc(F)cc31)CN(C/C=C/c1ccc(F)cc1)CC2 [Example 324, (E)-N-((2-chloropyridin-4-yl)methyl)-7-fluoro-2-(3-(4-fluorophenyl)allyl)-9-(trifluoromethyl)-1,2,3,4-tetrahydro-5H-pyrido[4,3-b]indole-5-carboxamide]	10	3.3
O=C(NCc1ccnc(Cl)c1)n1c2c(c3c(F)cc(C(F)(F)F)cc31)CN(C/C=C/c1ccc(F)cc1)CC2 [Example 325, (E)-N-((2-chloropyridin-4-yl)methyl)-9-fluoro-2-(3-(4-fluorophenyl)allyl)-7-(trifluoromethyl)-1,2,3,4-tetrahydro-5H-pyrido[4,3-b]indole-5-carboxamide]	7.6	3.3
O=C(NCc1ccnc(F)c1)n1c2c(c3c(C(F)(F)F)cc(F)cc31)CN(C/C=C/c1ccc(Cl)cc1)CC2 [Example 326, (E)-2-(3-(4-chlorophenyl)allyl)-7-fluoro-N-((2-fluoropyridin-4-yl)methyl)-9-(trifluoromethyl)-1,2,3,4-tetrahydro-5H-pyrido[4,3-b]indole-5-carboxamide]	10	7.6
O=C(NCc1ccnc(F)c1)n1c2c(c3c(F)cc(C(F)(F)F)cc31)CN(C/C=C/c1ccc(Cl)cc1)CC2 [Example 327, (E)-2-(3-(4-chlorophenyl)allyl)-9-fluoro-N-((2-fluoropyridin-4-yl)methyl)-7-(trifluoromethyl)-1,2,3,4-tetrahydro-5H-pyrido[4,3-b]indole-5-carboxamide]	10	> 100
O=C(NCc1ccnc(Cl)c1)n1c2c(c3cc(Cl)c(C(F)(F)F)cc31)CN(C/C=C/c1ccc(Cl)cc1)CC2 [Example 328, (E)-8-chloro-2-(3-(4-chlorophenyl)allyl)-N-((2-chloropyridin-4-yl)methyl)-7-(trifluoromethyl)-1,2,3,4-tetrahydro-5H-pyrido[4,3-b]indole-5-carboxamide]	33	0.3
COc1cc2c3c(n(C(=O)NCc4ccnc(Cl)c4)c2cc1C(F)(F)F)CCN(C/C=C/c1ccc(Cl)cc1)C3 [Example 329, (E)-2-(3-(4-chlorophenyl)allyl)-N-((2-chloropyridin-4-yl)methyl)-8-methoxy-7-(trifluoromethyl)-1,2,3,4-tetrahydro-5H-pyrido[4,3-b]indole-5-carboxamide]	1.8	0.3
Cc1cc2c3c(n(C(=O)NCc4ccnc(Cl)c4)c2cc1C(F)(F)F)CCN(C/C=C/c1ccc(Cl)cc1)C3 [Example 330, (E)-2-(3-(4-chlorophenyl)allyl)-N-((2-chloropyridin-4-yl)methyl)-8-methyl-7-(trifluoromethyl)-1,2,3,4-tetrahydro-5H-pyrido[4,3-b]indole-5-carboxamide]	> 100	0.5
